These results are taken from US10787423B2, “Piperazine and piperidine derivatives, their synthesis and use thereof in inhibiting VDAC oligomerization, apoptosis and mitochondria dysfunction” (THE NATIONAL INSTITUTE FOR BIOTECHNOLOGY IN THE NEGEV LTD., priority 2015, dated 2020).

Broadly, the IC50 is the concentration at which inhibition is half-maximal. A high value points to lower potency.

For one assay, the system named is HEK-293 cells. Kind of assay: Selenite-induced apoptosis, annexin V-FITC/PI staining and FACS, HEK-293 cells. Format: cell-based. The settings on record: Homo sapiens, HEK293, compound 2 h then selenite 15 μM 4 h, means±SD (n=3). As to the method: The ability of the compounds of general Formulae (I), (Ia), (Ib), (Ic), (Id), (II) and (IIa) to inhibit apoptosis may be analyzed by annexin-V/propidium iodide (PI) staining and flow cytometry.
(§1) Cells, e.g. HeLa cells (2×10^5), untreated or treated with apoptosis-inducing reagents, were analyzed for apoptotic cell death using PI, annexin V-FITC and flow cytometer analysis. Cells were collected (1500×g for 10 min), washed, and resuspended in 200 μl binding buffer (10 mM HEPES/NaOH, pH 7.4, 140 mM NaCl, and 2.5 mM CaCl2). Annexin V-FITC was added according to the recommended Protocol (Enzo Life Sciences, Switzerland), and the cells were incubated in the dark for 15 min. Cells were then washed with binding buffer and resuspended in 200 μl binding buffer, to which PI was added immediately before flow cytometry analysis. At least 10,000 events were collected, recorded on a dot plot, and analyzed by the FACSCalibur™ flow cytometer software (BD Biosciences, Franklin Lakes, N.J.).
b. Additionally, the inhibition of selenite-induced apoptosis by the compounds as analyzed using annexin V-FITC/PI staining and FACS, presented in the FIG. 15c.
d. IC50 values of the tested compounds were derived from the obtained data. The results shown correspond to means±SD (n=3).

Another assay relates to HeLa cells. As to the kind of experiment: Selenite-induced cell death in HeLa cells, PI staining and flow cytometry. Format: cell-based. As to the method:
as §1
HeLa cells were incubated with varying concentrations (2-20 μM) of racemic compound of Formula 1 (VBIT-4) and of the enantiomers of compound of Formula 1 (VBIT-4-1 and VBIT-4-2) for 1 hour, and then with or without selenite (25 μM, 3 hours). Cells were harvested and assayed for apoptotic cell death, using PI staining and FACS analysis. The results shown in the FIG. 14b correspond to means±SD (n=3).
Cells (2.5 mg/ml) were washed with and resuspended in PBS, pH 8.3 and incubated with membrane-permeable cross-linker EGS (250 μM) at 30° C. for 15 min and then subjected to SDS-PAGE and immunoblotting using anti-VDAC1 antibodies. Several anti-VDAC1 antibody-labeled protein bands were obtained upon exposure to the apoptosis stimuli that are correspond to VDAC1 dimers, trimers, tetramers and multimers. Cell death as induced by selenite and inhibited by the compound of Formula 3 (VBIT-12) or compound of Formula 11 (DIV00781) is shown (FIG. 21B), with closed circles corresponding to the compound of Formula 3 and open circles corresponding to the compound of Formula 11. Cell death was analyzed using propidium iodide (PI) staining and flow cytometry.
Background: Flow cytometry measures light scatter and fluorescence of single cells or particles in a stream.

A further assay concerns the target T1, purified rat VDAC1 (Rattus norvegicus, UniProt Q9Z2L0).
T1 construct: from tissue; host or cells: rat liver mitochondria
Kind of assay: VDAC1 channel conductance in planar lipid bilayer. Format: biochemical. The following applies: for IC50 / Max Inhibition (maximal reduction in channel conductance): planar lipid bilayer, measured at +10 mV and −10 mV. The source says: The direct interaction between VDAC and the compounds of general Formulae (I), (Ia), (Ib), (Ic), (Id), (II) and (IIa), especially the specific compounds of Formulae 1, 2, 3, 10 and 11, may be measured by assessing VDAC channel conductance, following its reconstitution into a planar lipid bilayer (PLB). The compounds of the general Formulae (I), (Ia), (Ib), (Ic), (Id), (II) and (IIa), interact with VDAC and reduce its channel conductance. To obtain quantitative parameters of this interaction and derive a dissociation constant, e.g. a microscale thermophoresis (MST) interaction assay may be performed. In this manner, dissociation values are derived from the curves showing the affinity of the compounds of the invention to VDAC.
Briefly, rat liver mitochondria (5 mg/ml) in 10 mM Tris-HCl, pH 7.2, were incubated with 2% LDAO at 0° C. for 20 min, followed by centrifugation (30 min, 14,000 g) and the obtained supernatant was loaded onto a dry celite:hydroxyapatite (2:1) column. VDAC1 was eluted with a solution containing 2% LDAO, 10 mM Tris-HCl, pH 7.2, 50 mM NaCl, and 20 to 22 mM NaH2PO4, with VDAC1 detection by Coomassie blue staining. The VDAC1-containing fractions were dialyzed against 10 mM Tris-HCl, pH 7.2, and subjected to a second chromatography step on a carboxymethyl-cellulose (CMC) column from which VDAC1 was eluted with a solution containing 10 mM Tris-HCl, pH 7.2, 0.1% LDAO and 500 mM NaCl, detected as above. The VDAC1-containing fractions were collected and used for VDAC1 channel conductance and MST assays.
The reconstitution of purified rat VDAC1 into a planar lipid bilayer (PLB) and subsequent single and multiple channel current recordings and data analysis were carried out as follows. Briefly, the PLB was prepared from soybean asolectin dissolved in n-decane (30 mg/ml). Purified VDAC1 (1 ng) was added to the chamber defined as the cis side containing 1 M NaCl, 10 mM Hepes, pH 7.4. Currents were recorded under voltage-clamp using a Bilayer Clamp BC-535B amplifier (Warner Instrument, Hamden, Conn.). The currents, measured with respect to the trans side of the membrane (ground), were low-pass-filtered at 1 kHz and digitized online using a Digidata1440-interface board and pClampex 10.2 software (Axon Instruments, Union City, Calif.).
VDAC1 was purified as described above in Methods (VDAC1 purification). Purified VDAC1 was reconstituted into a planar lipid bilayer (PLB) membrane and currents through VDAC1, in response to a voltage steps from 0 to +10 mV, from 0 to −10 mV, from 0 to +40 mV, and from 0 to −40 mV, were recorded before and 15 min after the addition of 20 μM of the compound of Formula 3 (VBIT-12).
Solid circles indicate conductance without VBIT-12, open circles with 20 μM VBIT-12.
Further, the VDAC1 channel conductance was measured with the increasing concentrations of VBIT-12, or of compound of Formula 1 (VBIT-4). Concentration dependence of VBIT-12 reducing VDAC1 channel conductance was measured at +10 my and at −10 mV.

T1 sequence (Q9Z2L0 whole entry): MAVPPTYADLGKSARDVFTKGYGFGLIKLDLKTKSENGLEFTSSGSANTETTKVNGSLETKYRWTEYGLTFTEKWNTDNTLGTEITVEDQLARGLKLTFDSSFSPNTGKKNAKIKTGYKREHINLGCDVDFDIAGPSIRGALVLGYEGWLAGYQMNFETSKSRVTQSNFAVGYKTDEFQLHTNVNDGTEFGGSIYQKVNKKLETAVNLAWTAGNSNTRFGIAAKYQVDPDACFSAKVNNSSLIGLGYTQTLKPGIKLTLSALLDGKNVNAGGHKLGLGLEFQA

As to `O=C(CC(CO)N1CCN(c2ccc(OC(F)(F)F)cc2)CC1)Nc1ccc(Cl)cc1` (racemic) [Formula 1, N-(4-chlorophenyl)-4-hydroxy-3-(4-(4-(trifluoromethoxy)phenyl)-piperazin-1-yl)butanamide], the IC50 in the assay with HEK-293 cells came out at 2.9 ± 0.12 µM; on purified rat VDAC1, 15 µM. The apoptotic cell death result in the assay on HeLa cells (2-20 μM 1 hour, then selenite 25 μM 3 hours) is recorded as “Inhibit Apoptotic Cell Death”. Moreover, the “Max Inhibition (maximal reduction in channel conductance)” value at purified rat VDAC1 was 50%.
Regarding `O=C(O)CNC(=O)C1(Nc2ccccc2)CCN(Cc2cccc3ccccc23)CC1` [Formula 3], the “cell death as induced by selenite” value in the assay with HeLa cells (22 h with selenite 8 μM and increasing concentrations) was “inhibited”. Moreover, at purified rat VDAC1, the “decrease in maximal channel conductance relative to VBIT-4” value is recorded as “higher decrease in the maximal channel conductance”, the IC50 was 5 µM and the “Max Inhibition (maximal reduction in channel conductance)” value came out at 80%. For the same compound, the “VDAC1 conductance in multi-channel experiments as function of voltage” value on purified rat VDAC1 (20 μM) was “stabilizing VDAC1 at a low conductance state at all voltages tested”. The VDAC1 channel conductance entry on purified rat VDAC1 (20 μM, 15 min after addition, voltage steps 0 to ±10 mV and ±40 mV) was “Channel conductance was reduced and the channel was stabilized in a low conducting state”. Moreover, the “affinity to VDAC1 relative to VBIT-4” value on purified rat VDAC1 (from concentration dependence of channel conductance) is recorded as “higher affinity than VBIT-4”.
